Results reported in patent publication US9260408B2, “Dihydroquinoline-2-one derivatives” (Hoffmann-La Roche Inc., priority 2011, dated 2016).
Where a name gives a salt, the structure may show the parent alone.

What was measured:
CYP11B2 = CYP11B2 (Homo sapiens, UniProt P19099); settings: patients with primary aldosteronism, cited from earlier work
[1] = tested on: rat model of chronic kidney disease; settings: cited from earlier work; for plasma aldosterone: FAD286: 4 weeks of treatment, spironolactone: 4 and 8 weeks of treatment; for renal effects (albuminuria, azotemia, renovascular hypertrophy, glomerular injury, PAI-1 and osteopontin mRNA, tubulointerstitial fibrosis): angiotensin II and high salt treatment; for angiotensin II and salt-stimulated PAI-1 mRNA expression in the aorta and the heart: rat, in vivo
[2] = tested on: rats with experimental heart failure; settings: rat, in vivo; cited from earlier work
human CYP11B1 = target: T1, human CYP11B1 (Homo sapiens, UniProt P15538); test: G-402 cellular enzyme assay, human CYP11B1 (cortisol release, HTRF); type: cell-based; settings: G-402 cells expressing human CYP11B1; 1 μM Deoxycortisol
T1 construct: expressed in transfected cells
T1 sequence (P15538 25-503): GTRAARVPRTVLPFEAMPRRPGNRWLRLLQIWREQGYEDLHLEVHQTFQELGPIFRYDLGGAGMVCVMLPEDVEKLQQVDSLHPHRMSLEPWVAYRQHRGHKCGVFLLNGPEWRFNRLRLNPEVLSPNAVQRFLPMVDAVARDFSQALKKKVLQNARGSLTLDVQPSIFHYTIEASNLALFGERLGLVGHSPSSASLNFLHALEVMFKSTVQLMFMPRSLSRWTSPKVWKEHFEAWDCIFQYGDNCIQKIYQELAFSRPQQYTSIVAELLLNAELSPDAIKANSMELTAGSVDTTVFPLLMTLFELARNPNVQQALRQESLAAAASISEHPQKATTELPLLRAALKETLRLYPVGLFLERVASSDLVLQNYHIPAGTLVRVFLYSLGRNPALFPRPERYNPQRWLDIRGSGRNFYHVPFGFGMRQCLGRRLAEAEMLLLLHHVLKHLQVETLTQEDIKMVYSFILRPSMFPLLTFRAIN
Outline: (§1)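 G-402 cells stably expressing human CYP11B2 or CYP11B1, in DMEM/F12 with 2.5% charcoal-treated FCS, were incubated 16 h with compound plus 1 μM deoxycorticosterone (CYP11B2) or 1 μM deoxycortisol (CYP11B1). Aldosterone or cortisol in the supernatant measured by HTRF; EC50 from a 4-parameter MMF fit.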

human CYP11B2 = target: T2, human CYP11B2 (Homo sapiens, UniProt P19099); test: G-402 cellular enzyme assay, human CYP11B2 (aldosterone release, HTRF); type: cell-based; settings: G-402 cells expressing human CYP11B2; 1 μM Deoxycorticosterone
T2 construct: expressed in transfected cells
T2 sequence (P19099 25-503): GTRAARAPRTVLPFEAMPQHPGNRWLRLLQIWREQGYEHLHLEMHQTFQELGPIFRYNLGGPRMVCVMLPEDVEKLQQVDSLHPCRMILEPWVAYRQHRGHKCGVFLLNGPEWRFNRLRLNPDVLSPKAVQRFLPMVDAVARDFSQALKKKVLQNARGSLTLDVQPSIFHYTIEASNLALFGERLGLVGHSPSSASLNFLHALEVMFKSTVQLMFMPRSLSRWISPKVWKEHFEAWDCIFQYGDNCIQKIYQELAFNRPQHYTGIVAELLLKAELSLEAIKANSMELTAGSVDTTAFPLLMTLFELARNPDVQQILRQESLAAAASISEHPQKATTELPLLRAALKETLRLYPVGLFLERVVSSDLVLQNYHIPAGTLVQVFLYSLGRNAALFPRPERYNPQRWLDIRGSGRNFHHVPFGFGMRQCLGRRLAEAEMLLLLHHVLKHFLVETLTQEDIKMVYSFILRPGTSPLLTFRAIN
Outline: as §1

SMILES: N#Cc1ccc([C@H]2CCc3cncn32)c(F)c1 [LCI699]
- circulating aldosterone levels (CYP11B2; oral): significantly lower
- blood pressure (CYP11B2): mildly decreased
- hypokalemia (CYP11B2): corrected
- selectivity (effects on the glucocorticoid axis) (CYP11B2): poor selectivity

SMILES: N#Cc1ccc(C2CCCc3cncn32)cc1 (stereo not shown) [FAD286]
- plasma aldosterone [1]: reduced
- renal effects (albuminuria, azotemia, renovascular hypertrophy, glomerular injury, PAI-1 and osteopontin mRNA, tubulointerstitial fibrosis) [1]: prevented these renal effects
- angiotensin II and salt-stimulated PAI-1 mRNA expression in the aorta and the heart [1]: not
- blood pressure and cardiovascular function and structure [2]: improved
- kidney function and morphology [2]: improve

SMILES: CC(=O)S[C@@H]1CC2=CC(=O)CC[C@]2(C)[C@H]2CC[C@@]3(C)[C@@H](CC[C@@]34CCC(=O)O4)[C@H]12 [spironolactone]
- plasma aldosterone [1]: increased
- renal effects (albuminuria, azotemia, renovascular hypertrophy, glomerular injury, PAI-1 and osteopontin mRNA, tubulointerstitial fibrosis) [1]: prevented these renal effects
- angiotensin II and salt-stimulated PAI-1 mRNA expression in the aorta and the heart [1]: enhanced

SMILES: CC(C)S(=O)(=O)NCc1cncc(-c2ccc3c(c2)CCC(=O)N3C)c1 [Example 38, Propane-2-sulfonic acid [5-(1-methyl-2-oxo-1,2,3,4-tetrahydro-quinolin-6-yl)-pyridin-3-ylmethyl]-amide]
- EC50 (human CYP11B1): 1500 nM
- EC50 (human CYP11B2): 81 nM

SMILES: CN1C(=O)CCc2cc(-c3cncc(OCCNC(=O)OC(C)(C)C)c3)ccc21 [Example 39, {2-[5-(1-Methyl-2-oxo-1,2,3,4-tetrahydro-quinolin-6-yl)-pyridin-3-yloxy]-ethyl}-carbamic acid tert-butyl ester]
- EC50 (human CYP11B1): 120 nM
- EC50 (human CYP11B2): 10 nM

SMILES: CN1C(=O)CCc2cc(-c3cncc(O[C@H]4CC[C@H](NS(C)(=O)=O)CC4)c3)ccc21 [Example 245, N-{(trans)-4-[5-(1-Methyl-2-oxo-1,2,3,4-tetrahydro-quinolin-6-yl)-pyridin-3-yloxy]-cyclohexyl}-methanesulfonamide]
- EC50 (human CYP11B1): 72 nM
- EC50 (human CYP11B2): 1 nM

SMILES: CCC(=O)NCCOc1cncc(-c2ccc3c(c2)CCC(=O)N3C)c1 [Example 43, N-{2-[5-(1-Methyl-2-oxo-1,2,3,4-tetrahydro-quinolin-6-yl)-pyridin-3-yloxy]-ethyl}-propionamide]
- EC50 (human CYP11B1): 1560 nM
- EC50 (human CYP11B2): 40 nM

SMILES: CN(Cc1cncc(-c2ccc3c(c2)CCC(=O)N3C)c1)C(=O)c1cnn(C)c1 [Example 198, 1-Methyl-1H-pyrazole-4-carboxylic acid methyl-[5-(1-methyl-2-oxo-1,2,3,4-tetrahydro-quinolin-6-yl)-pyridin-3-ylmethyl]-amide]
- EC50 (human CYP11B1): 188 nM
- EC50 (human CYP11B2): 7 nM

SMILES: CN1C(=O)CCc2cc(-c3cncc(OC4CCNCC4)c3)ccc21 [Example 62, 1-Methyl-6-[5-(piperidin-4-yloxy)-pyridin-3-yl]-3,4-dihydro-1H-quinolin-2-one hydrochloride]
- EC50 (human CYP11B1): 8540 nM
- EC50 (human CYP11B2): 177 nM

SMILES: CN1C(=O)CCc2cc(-c3cncc(NCc4ccccc4)n3)ccc21 [Example 25]
- EC50 (human CYP11B1): 110 nM
- EC50 (human CYP11B2): 5 nM

SMILES: CCC(=O)N1CCC[C@H](Oc2cncc(-c3ccc4c(c3)CCC(=O)N4C)c2)C1 [Example 81]
- EC50 (human CYP11B1): 4640 nM
- EC50 (human CYP11B2): 172 nM
